Results reported in patent US6417383B1, “Thermosensitive cyclotriphosphazene derivatives and a preparation method thereof” (Korea Institute of Science and Technology, priority 1999, dated 2002).

Assay: LCST (lower critical solution temperature) measured by UV/VIS spectrophotometer
Type: physicochemical
Conditions: lower critical solution temperature in water; Perkin-Elmer Lamda18 UV/VIS spectrophotometer
Method: Thermosensitivity in the present invention refers to the reversible phenomenon wherein a material is dissolved in water at a low temperature but precipitated as a result of the lowered solubility above at a critical temperature, and re-dissolved in water by lowering the temperature. This phenomenon is contradictory to the general phenomenon that solubility increases at higher temperatures. Thermosensitivity is often observed for water-soluble polymers that are dissolved below and precipitated above the so-called lower critical solution temperatures (LCST). Below the LCST, interaction between polymer and water molecules by hydrogen bonding is greater than the intermolecular hydrophobic interaction between polymer molecules, which results in dissolution of the polymer in water. As the temperature of the aqueous solution increases, however, the hydrogen bonding of the polymer-water molecules weakens whereas the hydrophobic interaction between the polymer molecules increases. As, the temperature of the aqueous solution reaches the LCST, the hydrophobic interaction becomes greater than the hydrogen bonding interaction between the polymer and water molecules resulting in the precipitation of the polymer in aqueous solution.
Elemental analysis of carbon, hydrogen, nitrogen in the compounds of the present invention was performed in the Special Analysis Center in our Institute by using a carbon, hydrogen and nitrogen analyzer (Perkin Eimer), and phosphorous analysis was performed using a Polyscan 61E ICP. Also, hydrogen and phosphorous nuclear magnetic resonance spectra were obtained using a Varian Gemini-300, and the LCST was measured by using a Perkin-Elmer Lamda18 UV/VIS spectrophotometer.

Row | Substance | LCST
1 | (2-(2′-Ethoxyethoxy)ethoxy)(L-aspartoyldiethylester) cyclotriphosphazene [Example 6] | 16.5 °C
2 | (2-(2′-Methoxyethoxy)ethoxy)(glycinebenzylester) cyclotriphosphazene [Example 2] | 10.5 °C
3 | (Poly(methoxyethyleneglycol350))(L-glutamoyldiethylester) cyclotriphosphazene [Example 12] | 73.0 °C
4 | (Poly(methoxyethyleneglycol750))(L-aspartoyldibenzylester) cyclotriphosphazene [Example 14] | 78.5 °C
5 | (Poly(methoxyethyleneglycol350))(aminomalonatoyl diethylester)cyclotriphosphazene [Example 9] | 95.0 °C
6 | (2-(2′-Methoxyethoxy)ethoxy)(L-aspartoyldiethylester) cyclotriphosphazene [Example 4] | 47.5 °C
7 | (2-(2′-Butoxyethoxy)ethoxy)(L-aspartoyldiethylester) cyclotriphosphazene [Example 7] | below 0 °C
8 | (Poly(methoxyethyleneglycols550))L-aspartoyldibenzylester) cyclotriphosphazene [Example 13] | 69.0 °C
9 | (2-(2′-Methoxyethoxy)ethoxy)(glycineethylester)cyclotriphosphazene [Example 1] | above 100 °C
10 | (Poly(methoxyethyleneglycol350))(L-aspartoyldibenzylester)cyclotriphosphazene [Example 11] | 42.5 °C
11 | (2-(2′-Methoxyethoxy)ethoxy)-(aminomalonatodiethylester) cyclotriphosphazene [Example 3] | 39.0 °C
12 | (Poly(methoxyethyleneglycol350))(L-aspartoyldiethylester) cyclotriphosphazene [Example 10] | 83.0 °C
13 | (2-(2′-Methoxyethoxy)ethoxy)(L-glutamoyldiethylester) cyclotriphosphazene [Example 5] | 30.0 °C
14 | (Poly(methoxyethyleneglycol350))(glycinebenzylester) cyclotriphosphazene [Example 8] | 65.5 °C
